Active and inactive are the calls of the source. No cut-off for these calls is given here.
Experiments:
[1] = biological target: Epidermal growth factor receptor (Homo sapiens) (UniProt P00533); experiment: Inhibition of EGFR at 1 mM
[2] = biological target: Receptor tyrosine-protein kinase erbB-2 (Homo sapiens) (UniProt P04626); experiment: Inhibition of HER2 at 1 mM
Sequence of Receptor tyrosine-protein kinase erbB-2 (Homo sapiens) (P04626 whole entry): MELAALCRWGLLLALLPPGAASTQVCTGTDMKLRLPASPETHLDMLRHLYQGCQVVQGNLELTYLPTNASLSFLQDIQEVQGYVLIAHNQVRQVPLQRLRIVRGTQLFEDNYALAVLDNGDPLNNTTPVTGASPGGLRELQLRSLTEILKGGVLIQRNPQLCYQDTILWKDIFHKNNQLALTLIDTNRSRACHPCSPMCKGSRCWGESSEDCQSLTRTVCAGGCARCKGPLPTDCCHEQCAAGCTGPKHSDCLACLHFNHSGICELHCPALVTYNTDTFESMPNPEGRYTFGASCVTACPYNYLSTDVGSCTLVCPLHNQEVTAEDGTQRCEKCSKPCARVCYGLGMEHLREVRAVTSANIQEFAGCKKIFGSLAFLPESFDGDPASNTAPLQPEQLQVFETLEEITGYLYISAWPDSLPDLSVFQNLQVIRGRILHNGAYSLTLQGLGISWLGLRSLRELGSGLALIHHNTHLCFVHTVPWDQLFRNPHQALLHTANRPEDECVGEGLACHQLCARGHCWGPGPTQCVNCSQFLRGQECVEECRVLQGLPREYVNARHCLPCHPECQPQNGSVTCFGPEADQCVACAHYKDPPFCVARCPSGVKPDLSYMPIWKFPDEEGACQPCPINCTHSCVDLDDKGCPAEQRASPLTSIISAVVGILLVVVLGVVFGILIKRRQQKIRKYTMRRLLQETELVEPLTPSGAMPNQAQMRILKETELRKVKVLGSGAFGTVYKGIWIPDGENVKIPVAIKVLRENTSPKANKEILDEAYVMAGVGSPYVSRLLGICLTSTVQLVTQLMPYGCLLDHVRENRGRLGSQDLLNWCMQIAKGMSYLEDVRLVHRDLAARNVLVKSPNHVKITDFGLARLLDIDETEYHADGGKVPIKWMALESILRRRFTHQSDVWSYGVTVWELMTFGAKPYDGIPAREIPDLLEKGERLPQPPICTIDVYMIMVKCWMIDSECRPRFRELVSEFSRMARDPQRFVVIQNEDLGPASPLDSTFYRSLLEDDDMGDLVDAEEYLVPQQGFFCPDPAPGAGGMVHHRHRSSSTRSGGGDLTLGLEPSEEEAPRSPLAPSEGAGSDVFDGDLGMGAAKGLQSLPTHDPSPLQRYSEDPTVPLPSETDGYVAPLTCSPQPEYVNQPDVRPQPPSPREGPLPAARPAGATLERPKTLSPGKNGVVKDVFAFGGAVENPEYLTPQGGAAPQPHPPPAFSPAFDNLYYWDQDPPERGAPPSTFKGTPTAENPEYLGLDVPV

Sequence of Epidermal growth factor receptor (Homo sapiens) (P00533 whole entry): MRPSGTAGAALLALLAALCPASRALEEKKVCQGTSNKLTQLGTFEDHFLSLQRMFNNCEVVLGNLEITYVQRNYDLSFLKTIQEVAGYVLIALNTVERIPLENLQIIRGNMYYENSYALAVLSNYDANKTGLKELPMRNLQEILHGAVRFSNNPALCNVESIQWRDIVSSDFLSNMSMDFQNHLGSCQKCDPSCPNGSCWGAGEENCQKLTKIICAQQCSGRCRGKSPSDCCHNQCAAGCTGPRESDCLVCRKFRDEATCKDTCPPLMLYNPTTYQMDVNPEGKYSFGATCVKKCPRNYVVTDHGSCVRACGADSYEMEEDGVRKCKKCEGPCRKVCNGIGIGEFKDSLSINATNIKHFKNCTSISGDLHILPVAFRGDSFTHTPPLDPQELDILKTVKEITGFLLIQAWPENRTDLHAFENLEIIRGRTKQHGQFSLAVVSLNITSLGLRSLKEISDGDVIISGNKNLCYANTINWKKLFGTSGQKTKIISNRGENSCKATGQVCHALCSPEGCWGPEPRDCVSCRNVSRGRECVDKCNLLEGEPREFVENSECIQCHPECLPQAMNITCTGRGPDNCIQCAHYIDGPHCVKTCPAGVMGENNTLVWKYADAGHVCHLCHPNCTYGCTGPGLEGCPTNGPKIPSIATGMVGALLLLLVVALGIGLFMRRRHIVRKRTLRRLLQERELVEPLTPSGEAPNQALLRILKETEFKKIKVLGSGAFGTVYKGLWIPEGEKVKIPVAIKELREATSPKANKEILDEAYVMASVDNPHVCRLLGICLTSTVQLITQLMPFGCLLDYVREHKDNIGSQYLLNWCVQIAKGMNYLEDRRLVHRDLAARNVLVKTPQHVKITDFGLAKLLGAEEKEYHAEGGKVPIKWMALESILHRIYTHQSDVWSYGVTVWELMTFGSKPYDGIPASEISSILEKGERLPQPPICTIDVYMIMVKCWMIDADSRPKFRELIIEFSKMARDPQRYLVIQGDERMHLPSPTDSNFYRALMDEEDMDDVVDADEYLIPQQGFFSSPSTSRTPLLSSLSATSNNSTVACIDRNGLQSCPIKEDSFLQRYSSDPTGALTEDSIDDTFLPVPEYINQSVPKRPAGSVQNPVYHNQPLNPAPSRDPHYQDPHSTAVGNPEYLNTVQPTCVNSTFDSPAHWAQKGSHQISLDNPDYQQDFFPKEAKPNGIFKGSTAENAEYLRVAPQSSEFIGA

| inhibition [1] | inhibition [2] | Structure (SMILES) |
| --- | --- | --- |
| inactive | inactive | CC(C)CCNC1=CC(=O)C(O)=C(C[C@@]2(C)[C@@H]3CCCC(C)(C)C3=CC[C@@H]2C)C1=O |
| inactive | inactive | CC[C@H](C)CNC1=CC(=O)C(O)=C(C[C@]2(C)[C@@H](C)CC[C@]3(C)C(C)=CCC[C@@H]23)C1=O |
| inactive | 59% | CC1=CCC[C@H]2[C@](C)(CC3=C(O)C(=O)C=C(NCC(C)C)C3=O)[C@@H](C)CC[C@]12C |
| inactive | inactive | C=C1CCC[C@H]2[C@](C)(CC3=C(O)C(=O)C=C(NC[C@@H](C)CC)C3=O)[C@@H](C)CC[C@]12C |
| inactive | inactive | CC1=CCC[C@H]2[C@](C)(CC3=C(O)C(=O)C=C(NCCc4ccccc4)C3=O)[C@@H](C)CC[C@]12C |
| inactive | 66% | CC1=CCC[C@H]2[C@](C)(CC3=C(O)C(=O)C=C(NCCC(C)C)C3=O)[C@@H](C)CC[C@]12C |
| > 99% | 52% | CC1=CCC[C@H]2[C@](C)(CC3=C(O)C(=O)C=C(NCCS(=O)(=O)O)C3=O)[C@@H](C)CC[C@]12C |
| inactive | inactive | CC[C@H](C)CNC1=CC(=O)C(O)=C(C[C@@]2(C)[C@@H]3CCCC(C)(C)C3=CC[C@@H]2C)C1=O |
| 76% | inactive | C[C@H]1CC=C2[C@@H](CCCC2(C)C)[C@]1(C)CC1=C(O)C(=O)C=C(NCCc2ccccc2)C1=O |

— ChEMBL document CHEMBL1154843, “Nakijiquinones J--R, sesquiterpenoid quinones with an amine residue from okinawan marine sponges” (J Nat Prod, 2010)
